Assay results published in article PMC6865014, “Discovery of Novel µ-Opioid Receptor Inverse Agonist from a Combinatorial Library of Tetrapeptides through Structure-Based Virtual Screening” (Molecules, 2019).

What was measured:
[1] = test system: δ-opioid receptors; conditions: ref [11]; cited from earlier work
Source text: These are potent μ-opioid agonists that exert addiction liability and numerous side effects, such as euphoria, addiction, respiratory depression, and gastrointestinal adverse reactions; therefore; circumventing these drawbacks is of extensive importance. A large amount of literature documented novel approaches to disconnecting the analgesic efficacy of μ-opioid agonists from morphine-like side effects, for example biasing the GPCRs over β-arrestin2 recruitment (TRV130, PZM21, HS665) or designing positive allosteric modulators of the MOR (BMS-986122), MOR inverse agonists/KOR antagonists, ...

[2] = biological target: δ-opioid receptor (rat (endogenous in Wistar rat brain)) (UniProt P33533); assay: radioligand binding; competition against ~1 nM [^3H]IleDelt II on rat brain membranes (0.3-0.5 mg/mL protein), test ligands at 3 and 10 µM, 35 °C, 45 min; non-specific binding with 10 µM naloxone; filtration, 50 mM Tris-HCl pH 7.4 wash
[3] = test system: DOR (δ-opioid receptor), rat brain membranes; assay: Radioligand competition binding, [^3H]IleDelt II; design: species or system rat (male Wistar); conditions: 3 and 10 µM
Procedure: (§1) Rats were decapitated and their brains were quickly removed. The brains were used for membrane preparation according to Benyhe et al. partly used for competition binding experiments and partly were further prepared for the [^35S]GTPγS binding experiments based on Zádor et al.. Briefly, the brains were homogenized, centrifuged in ice-cold 50 mM Tris-HCl (pH 7.4) buffer and incubated at 37 °C for 30 min in a shaking water-bath. After incubation, the centrifugation was repeated as described before and the final pellet was suspended in 50 mM Tris-HCl pH 7.4 buffer containing 0.32 M sucrose and stored at −80 °C. For the [^35S]GTPγS binding experiments the final pellet of rat brain membrane homogenate was suspended in ice-cold TEM (Tris-HCl, EGTA, MgCl2) and stored at −80 °C for further use.
Total and non-specific binding was determined in the absence of ligands and the presence of 10 µM unlabeled naloxone, respectively. […] The radioactivity of the filters was detected in UltimaGold^TM MV aqueous scintillation cocktail with Packard Tricarb 2300TR liquid scintillation counter. […]
(§2) The specific binding of all radiolabeled compounds was calculated by the subtraction of non-specific binding from total binding and was given in percentage. […]

[4] = test system: Gαi/o protein, rat brain membrane homogenates; assay: Functional [^35S]GTPγS binding (G-protein activity); format: biochemical, rat (male Wistar); conditions: 10 µM, basal activity = 100%, 30 °C, 60 min, triplicates, at least three times; for effect on G-protein basal activity / [^35S]GTPγS specific binding (in words): rat brain membranes, pH 7.4
Procedure: as §1
In [^35S]GTPγS binding experiments was measured the GDP→GTP exchange of the Gαi/o protein in the presence of a given ligand to measure ligand potency and the maximal efficacy of receptors G-protein. The nucleotide exchange is monitored by a radioactive, non-hydrolysable GTP analog, [^35S]GTPγS. The functional [^35S]GTPγS binding experiments were performed as previously described, with some modifications. The test compounds in 10 µM were incubated together with rat brain membrane homogenates containing ~10 μg/mL protein at 30 °C for 60 min in Tris-EGTA buffer (pH 7.4) composed of 50 mM Tris-HCl, 1 mM EGTA, 3 mM MgCl2, 100 mM NaCl, containing 20 MBq/0.05 cm^3 [^35S]GTPγS (0.05 nM). […] Total binding was measured in the absence of test compounds, while non-specific binding was determined in the presence of 10 μM unlabeled GTPγS. The bound and unbound [^35S]GTPγS were separated as described in the competition binding assays section through Whatmann GF/B glass fibers. The radioactivity of the filters was also detected as described above. [^35S]GTPγS binding experiments were performed in triplicates and repeated at least three times.
(§3) The specific binding of all radiolabeled compounds was calculated by the subtraction of non-specific binding from total binding and was given in percentage. The data were normalized to total specific binding, which was settled 100%, which in the case of [^35S]GTPγS also represents the basal activity of the G-protein. Experimental data were presented as mean ± S.E.M. Statistical analyses were performed with GraphPad Prism 5.0 applying one-way ANOVA with Tukey’s multiple comparison test. Significance was accepted at the p < 0.05 level.

[5] = test system: MOR (µ-opioid receptor), rat brain membranes; assay: Radioligand competition binding, [^3H]DAMGO; design: species or system rat (male Wistar); conditions: for activity against MOR (in words): stated when comparing binding modes, up to 10 µM
Procedure: as §1
Total and non-specific binding was determined in the absence of ligands and the presence of 10 µM unlabeled naloxone, respectively. Following incubation, the bound and unbound radioligands were separated by rapid vacuum filtration through Whatman GF/C glass fibers and washed three times with 5 mL ice-cold 50 mM Tris-HCl (pH: 7.4). The radioactivity of the filters was detected in UltimaGold^TM MV aqueous scintillation cocktail with Packard Tricarb 2300TR liquid scintillation counter. The competition binding assays were performed in duplicate and repeated at least three times.
as §3

[6] = test system: MOR, rat brain membrane homogenates; assay: MOR specificity of the peptide 1 effect: [^35S]GTPγS binding with co-incubated DAMGO or cyprodime; format: biochemical, rat (male Wistar); conditions: rat brain membranes
Procedure: as §1, with “For the [^35S]GTPγS binding experiments the final pellet of rat brain membrane homogenate was suspended in ice-cold TEM (Tris-HCl, EGTA, MgCl2) and stored at −80 °C for further use.” left out
In [^35S]GTPγS binding experiments was measured the GDP→GTP exchange of the Gαi/o protein in the presence of a given ligand to measure ligand potency and the maximal efficacy of receptors G-protein. The nucleotide exchange is monitored by a radioactive, non-hydrolysable GTP analog, [^35S]GTPγS. […] Total binding was measured in the absence of test compounds, while non-specific binding was determined in the presence of 10 μM unlabeled GTPγS. […] The radioactivity of the filters was also detected as described above. […]
as §2

[7] = biological target: µ-opioid receptor (rat (endogenous in Wistar rat brain)) (UniProt P33535)

rubiscolin-6
G protein signaling at δ-opioid receptors (in words) [1]: activate G protein signaling pathways at the δ-opioid receptors | β-arrestin recruitment (in words) [1]: minimal β-arrestin recruitment

Ile^5,6-deltorphin II (peptide)
specific binding of the radiolabeled homolog left (percent of total) [2]: 0%

H-Tyr-Lys-Arg-Cys-OH [peptide 1, TFA.H-Tyr-Lys-Arg-Cys-OH]
inhibition of [^3H]IleDelt II specific binding (in words) [3]: not against [^3H]IleDelt II | reduction of G-protein basal activity ([^35S]GTPγS specific binding) ([4]; rat brain membranes ~10 μg/mL, pH 7.4, 0.05 nM [^35S]GTPγS): ~ 20% | effect on G-protein basal activity / [^35S]GTPγS specific binding (in words) [4]: appreciable inverse agonist effect | inhibition of [^3H]DAMGO specific binding (in words) ([5]; 3 and 10 µM, rat brain membranes): displayed inhibition of [^3H]DAMGO specific binding | selectivity MOR over DOR (in words) ([5]; [^3H]DAMGO vs [^3H]IleDelt II binding, rat brain membranes): selectivity for MOR over DOR | MOR functional activity (in words) ([6]; 10 µM): appreciable inverse agonist effect at MOR | inverse agonist effect in presence of DAMGO ([6]; peptide 1 10 µM + DAMGO 10 µM): the inverse agonist effect was reversed back to basal activity level

H-Tyr-Trp-Trp-Trp-OH [peptide 2, TFA.H-Tyr-Trp-Trp-Trp-OH]
effect on G-protein basal activity / [^35S]GTPγS specific binding (in words) [4]: did not alter significantly the basal activity | activity against MOR (in words) [5]: inactive against MOR

H-Tyr-Trp-Tyr-Trp-OH [peptide 3, TFA.H-Tyr-Trp-Tyr-Trp-OH]
effect on G-protein basal activity / [^35S]GTPγS specific binding (in words) [4]: did not alter significantly the basal activity | activity against MOR (in words) [5]: inactive against MOR

Tyr-D-Ala-Gly-(NMe)Phe-Gly-ol [DAMGO, reference compound]
effect on G-protein basal activity / [^35S]GTPγS specific binding (in words) [4]: significantly increased the specific binding of the [^35S]GTPγS compared to the basal level | specific binding of [^3H]DAMGO in presence of unlabeled homologue ([5]; control, unlabeled DAMGO 3 and 10 µM, rat brain membranes, 35 °C, 45 min, 0% = non-specific binding level): 0%

YKRC [peptide 1 (Tyr-Lys-Arg-Cys)]
[^35S]GTPγS specific binding (G-protein basal activity) in rat brain membranes, 10 µM peptide 1 [7]: 20%
